ChEMBL document CHEMBL1145672, “Isolation and identification of trachyloban-19-oic and (-)-kaur-16-en-19-oic acids as antimicrobial agents from the prairie sunflower, Helianthus annuus” (1983)
In brackets after ≈: the same amount, converted by molar mass. Activity calls are given as the source filed them. No cut-off for these calls is given here.

Assays:
[1] = system: Mycolicibacterium smegmatis; assay: Antimicrobial activity against Mycobacterium smegmatis ATCC 607 by agar-dilution streak method; format: functional
Escherichia coli [2] = assay: Antimicrobial activity against Escherichia coli ATCC 9637 at 100 ug/mL by agar-dilution streak method; format: functional, organism-based
Candida albicans = assay: Antimicrobial activity against Candida albicans ATCC 10231at 100 ug/mL by agar-dilution streak method; format: functional, organism-based
Klebsiella pneumoniae [3] = assay: Antimicrobial activity against Klebsiella pneumoniae ATCC 10031 at 100 ug/mL by agar-dilution streak method; format: functional, organism-based
[4] = system: Salmonella enterica subsp. enterica serovar Gallinarum; assay: Antimicrobial activity against Salmonella gallinarum ATCC 9184 at 100 ug/mL by agar-dilution streak method; format: functional, organism-based
Staphylococcus aureus [5] = assay: Antimicrobial activity against Staphylococcus aureus ATCC 13709 by agar-dilution streak method; format: functional
Staphylococcus aureus [6] = assay: Antimicrobial activity against Staphylococcus aureus ATCC 13709 at 100 ug/mL by agar-dilution streak method; format: functional, organism-based
Klebsiella pneumoniae [7] = assay: Antimicrobial activity against Klebsiella pneumoniae ATCC 10031 by agar-dilution streak method; format: functional
Escherichia coli [8] = assay: Antimicrobial activity against Escherichia coli ATCC 9637 by agar-dilution streak method; format: functional
[9] = system: Salmonella enterica subsp. enterica serovar Gallinarum; assay: Antimicrobial activity against Salmonella gallinarum ATCC 9184 by agar-dilution streak method; format: functional

For `C[C@@]12C[C@@]34CC[C@H]5[C@@](C)(CCC[C@]5(C)C(=O)O)[C@@H]3C[C@H]1[C@H]2C4`, the MIC [1] was 6.25 mg/L (≈ 20.7 µM), the Activity (Escherichia coli [2]) was “inactive” and the Activity (Candida albicans) was “inactive”. For the same compound, the Activity (Klebsiella pneumoniae [3]) was “inactive”, the Activity [4] was “inactive” and the MIC (Staphylococcus aureus [5]) was 6.25 mg/L (≈ 20.7 µM).

For `C=C1C[C@@]23CC[C@H]4[C@@](C)(CCC[C@@]4(C)C(=O)OC)[C@@H]2CC[C@@H]1C3` [KAURENOIC ACID METHYL ESTER], the MIC [1] was 25 mg/L (≈ 79 µM), the Activity (Staphylococcus aureus [6]) was “inactive” and the Activity (Escherichia coli [2]) was “inactive”. For the same compound, the Activity (Candida albicans) was “inactive”, the Activity (Klebsiella pneumoniae [3]) was “inactive” and the Activity [4] was “inactive”.

With `CN[C@@H]1[C@H](O[C@H]2[C@H](O[C@H]3[C@H](O)[C@@H](O)[C@H](N=C(N)N)[C@@H](O)[C@@H]3N=C(N)N)O[C@@H](C)[C@]2(O)C=O)O[C@@H](CO)[C@H](O)[C@H]1O` [STREPTOMYCIN] the MIC [1] was 0.78 mg/L (≈ 1.34 µM), the MIC (Klebsiella pneumoniae [7]) was 1.56 mg/L (≈ 2.68 µM) and the Activity (Candida albicans) was “inactive”. It also gave an MIC (Escherichia coli [8]) of 12.5 mg/L (≈ 21.5 µM), an MIC [9] of 25 mg/L (≈ 43 µM) and an MIC (Staphylococcus aureus [5]) of 3.1 mg/L (≈ 5.33 µM).

With `C=C1C[C@@]23CC[C@H]4[C@@](C)(CCC[C@]4(C)C(=O)O)[C@@H]2CCC1C3` the MIC [1] was 6.25 mg/L (≈ 20.7 µM), the Activity (Escherichia coli [2]) was “inactive” and the Activity (Candida albicans) was “inactive”. The Activity (Klebsiella pneumoniae [3]) was “inactive”, the Activity [4] was “inactive” and the MIC (Staphylococcus aureus [5]) was 12.5 mg/L (≈ 41.3 µM).
